Patent US20190350940A1, “PLATINUM COMPOUNDS, COMPOSITIONS, AND USES THEREOF” (priority 2015, published 2019)
Where two headings read alike, the source gives them in different places.

Legend:
[1] = test system: A2780 human ovarian cancer; test: A2780 ovarian xenograft model; type: in vivo, mouse
Experimental: The effect of Compound 8 on tumor growth inhibition (TGI) was evaluated in the A2780 human ovarian cancer nude mouse (female Crl:NU(NCr)-Foxn1^nu) xenograft model.

patients = conditions: cited from earlier work
rats = conditions: 50 rats treated for 3 weeks, 3×1 mg/kg body weight/week; cited from earlier work
NCI-H520 human NSCLC = test: NCI-H520 lung xenograft model; type: in vivo, mouse
Experimental: The effect of Compound 8 also was evaluated in the NCI-H520 human NSCLC nude mouse (female CrTac:NCr-Foxn1^nu) xenograft model. […] All treatments were statistically significant compared to vehicle (p<0.0001).

Calu-6 human NSCLC = test: Calu-6 lung xenograft model; type: in vivo, mouse
Experimental: The effect of Compound 8 was evaluated in the Calu-6 human NSCLC nude mouse (female Crl:NU(NCr)-Foxn1^nu) xenograft model.

[2] = test system: BxPC-3 human pancreatic adenocarcinoma; test: BxPC-3 pancreatic xenograft model; type: in vivo, mouse; conditions: cisplatin 4 mg/kg
Experimental: The effect of Compound 8 on TGI was evaluated in the BxPC-3 human pancreatic adenocarcinoma nude mouse (female Crl:NU(NCr)-Foxn1^nu) xenograft model.

rat = test: Single IV administration in the rat, kidney findings; type: in vivo; conditions: single dose of cisplatin 7 mg/kg
[3] = test system: MIA Paca-2 human pancreatic adenocarcinoma; test: MIA Paca-2 pancreatic xenograft model; type: in vivo, mouse

## N.N.[Cl][Pt][Cl] [Cisplatin]
[1]; Cisplatin 4 mg/kg (13.3 uM/kg) IV every 3 days, 6 doses
  MTV (mean tumor volume): 1052 mm^3
[1]; Cisplatin 4 mg/kg IV every 3 days, 6 doses
  TGI (tumor growth inhibition) versus vehicle: 55%
[1]; cisplatin 4 mg/kg, Day 5
  Mean maximal BW loss: 2.3%
patients; first-line setting
  Response rate in most advanced cancers: ~50%
patients; human, in vivo
  Hypersensitivity reactions, patients treated: up to 20%
patients; second- or third-line setting
  Response rate in most advanced cancers: 15%
rats
  Deaths secondary to malignancy: 13
NCI-H520 human NSCLC; Cisplatin 3 mg/kg (10 uM/kg) IV twice weekly, 5 doses, Day 31
  MTV (mean tumor volume): 823 mm^3
NCI-H520 human NSCLC; cisplatin 3 mg/kg, on Day 4
  Mean maximal BW loss: 0.43%
Calu-6 human NSCLC; Cisplatin 3 mg/kg (10 uM/kg) IV twice weekly for 2 weeks, Day 33
  MTV (mean tumor volume): 462 mm^3
Calu-6 human NSCLC; Cisplatin 3 mg/kg IV twice weekly for 2 weeks, Day 33
  TGI (tumor growth inhibition) versus vehicle: 74%
Calu-6 human NSCLC; Cisplatin 3 mg/kg IV twice weekly for 2 weeks, Day 54
  Median TTE (time to endpoint): 52.5 days
Calu-6 human NSCLC; cisplatin 3 mg/kg
  BW loss: no BW loss
  T-C: 16.7 days
Calu-6 human NSCLC; cisplatin 3 mg/kg, one animal
  Treatment-related side effects: severe petechiae on Day 4
[2]
  Treatment-related side effects: No treatment-related side effects
rat
  Kidney findings: high incidence of moderate acute tubular necrosis of the kidney

## O=C1[O][Pt]2([NH][C@@H]3CCCC[C@H]3[NH]2)[O]C1=O [Oxaliplatin]
[3]; Oxaliplatin 7 mg/kg (17.9 uM/kg) IV q3, 7 doses, Day 18
  MTV (mean tumor volume): 1251 mm^3
[3]; Oxaliplatin 7 mg/kg IV q3, 7 doses, Day 18
  TGI (tumor growth inhibition) versus vehicle: 61%
[3]; oxaliplatin 7 mg/kg, all animals, Day 18
  Treatment-related effects: pale and dehydrated and having petechiae
[3]; oxaliplatin 7 mg/kg, printed 'Day 5.3'
  Mean maximal BW loss: 8.1%
